Where a name gives a salt, the structure may show the parent alone. Read-outs that look alike come from different tables or passages of the source.

Data on nine compounds can be found in US5610176A, “Tachykinin (NK1) receptor antagonists” (Warner-Lambert Company, priority 1995, dated 1997).

Test [1] addresses T1, NK1 receptor (Cavia porcellus, UniProt P30547).
T1 construct: Guinea Pig Ileum; from tissue; host or cells: guinea pig ileum
Kind of test: NK1 antagonist activity in an in vitro NK1 preparation (guinea pig ileum), antagonism of substance-P methylester. It is filed as cell-based. As to conditions: vs substance-P methylester. The source says:
Therefore, it is expected to be useful in the therapeutic disorders when the attenuation of the NK1 receptor response is the appropriate form of intervention.

Test [2] concerns the target T1, NK1 receptor. Kind of test: Inhibition of SPOMe-induced plasma protein extravasation in the guinea pig bladder. It is filed as in vivo. From the text: They antagonize the ability of a NK1 receptor selective agonist (SPOMe) to induce plasma protein extravasation in the guinea pig bladder. The protocol is similar to that described by Eglezos, et al., Eur. J. Pharmacol., 209: 277-279 (1991).

Another test deals with T2, tachykinin NK1 receptor (Homo sapiens, UniProt P25103).
T2 construct: tachykinin NK1 receptor sites in human IM9 lymphoma cells; endogenous in cells; host or cells: human IM9 lymphoma cells
Kind of test: NK1 binding in human IM9 lymphoma cells, displacement of [125I]Bolton Hunter Substance-P. Background: Displacement assays read how much labelled ligand stays bound in the presence of the test substance.

T2 sequence (P25103 whole entry): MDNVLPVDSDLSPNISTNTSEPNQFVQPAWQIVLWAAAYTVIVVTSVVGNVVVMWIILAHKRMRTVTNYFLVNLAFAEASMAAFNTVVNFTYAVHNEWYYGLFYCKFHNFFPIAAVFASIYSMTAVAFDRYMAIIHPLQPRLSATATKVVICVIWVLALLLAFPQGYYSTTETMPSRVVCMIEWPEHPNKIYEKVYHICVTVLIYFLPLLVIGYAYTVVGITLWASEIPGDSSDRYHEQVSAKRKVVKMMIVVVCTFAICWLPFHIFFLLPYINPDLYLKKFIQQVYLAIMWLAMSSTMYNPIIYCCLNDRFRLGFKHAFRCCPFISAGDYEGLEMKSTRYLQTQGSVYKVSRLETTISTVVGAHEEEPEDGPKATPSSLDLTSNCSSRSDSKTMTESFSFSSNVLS
T1 sequence (P30547 whole entry): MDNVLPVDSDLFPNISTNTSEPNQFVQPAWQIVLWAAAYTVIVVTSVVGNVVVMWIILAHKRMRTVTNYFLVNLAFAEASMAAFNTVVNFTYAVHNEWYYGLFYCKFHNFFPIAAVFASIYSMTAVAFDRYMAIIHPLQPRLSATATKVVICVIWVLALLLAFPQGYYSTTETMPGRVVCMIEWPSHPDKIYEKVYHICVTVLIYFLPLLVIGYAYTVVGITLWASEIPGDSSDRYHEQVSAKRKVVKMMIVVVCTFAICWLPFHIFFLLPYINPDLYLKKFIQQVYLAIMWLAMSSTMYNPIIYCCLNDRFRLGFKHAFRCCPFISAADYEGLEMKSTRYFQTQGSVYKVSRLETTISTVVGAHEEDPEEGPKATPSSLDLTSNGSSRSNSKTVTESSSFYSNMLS

Take `C[C@](Cc1c[nH]c2ccccc12)(NC(=O)OCc1cc2ccccc2o1)C(=O)N[C@@H](CO)c1ccccc1` [Example 6, Carbamic acid, [2-[(2-hydroxy-1-phenylethyl)amino]-1-(1H-indol-3-ylmethyl)-1-methyl-2-oxoethyl]-, 2-benzofuranylmethyl ester, [R-(R*,R*)]-]: the Kb (commonly the equilibrium dissociation constant of an antagonist, usually derived from a functional assay) at NK1 receptor [1] turned out to be 1.3 nM. The ED50 at NK1 receptor [2] (IV, read-out: ID50 (IV)) was 0.16 mg/kg; on NK1 receptor [2] (PO, read-out: ID50 (PO)), 30 mg/kg. For the same compound, the IC50 (in general, the point on the concentration scale where inhibition reaches its midpoint) at tachykinin NK1 receptor was 1.2 nM.
Compound `C[C@](Cc1c[nH]c2ccccc12)(NC(=O)OCc1cc2ccccc2o1)C(=O)N[C@@H](CN)c1ccccc1` [Example 8, Carbamic acid, [2-[(2-amino-1-phenylethyl)amino]-1-(1H-indol-3-ylmethyl)-1-methyl-2-oxoethyl]-, 2-benzofuranylmethyl ester [R-(R*,R*)]-] showed a Kb at NK1 receptor [1] of 16 nM. This compound also displayed an IC50 on tachykinin NK1 receptor of 13 nM.
On to `CN(C)CC(=O)OC[C@H](NC(=O)[C@@](C)(Cc1c[nH]c2ccccc12)NC(=O)OCc1cc2ccccc2o1)c1ccccc1` [Example 9, Glycine, N,N-dimethyl-, 2-[[2-[[(2-benzofuranylmethoxy)carbonyl]amino]-3-(1H-indol-3-yl)-2-methyl-1-oxopropyl]amino]-2-phenylethyl ester, monohydrochloride, [R-(R*,R*)]-], for which the Kb on NK1 receptor [1] is 6.2 nM. Besides, the ED50 came to 0.16 mg/kg on NK1 receptor [2] (IV, read-out: ID50 (IV)) and 4.4 mg/kg on NK1 receptor [2] (PO, read-out: ID50 (PO)). On tachykinin NK1 receptor, this compound registered an IC50 of 12 nM.
`CN(C)CC(=O)NC[C@H](NC(=O)[C@@](C)(Cc1c[nH]c2ccccc12)NC(=O)OCc1cc2ccccc2o1)c1ccccc1` [Example 10, Carbamic acid, [2-[[(2-[[(dimethylamino)acetyl]amino]-1-phenylethyl]amino]-1-(1H-indol-3-ylmethyl)-1-methyl-2-oxoethyl]-, 2-benzofuranylmethyl ester, monohydrochloride, [R-(R*,R*)]-]: the 50% inhibitory concentration (IC50) at tachykinin NK1 receptor amounted to 84 nM.
Compound `CC(C)C[C@H](N)C(=O)OC[C@H](NC(=O)[C@@](C)(Cc1c[nH]c2ccccc12)NC(=O)OCc1cc2ccccc2o1)c1ccccc1` [Example 12, L-Leucine, 2-[[2-[[(2-benzofuranylmethoxy)carbonyl]amino]-3-(1H-indol-3-yl)-2-methyl-1-oxopropyl]amino]-2-phenylethyl ester, [R-(R*,R*)]-] yielded a Kb on NK1 receptor [1] of 22 nM. This compound also gave an IC50 at tachykinin NK1 receptor of 16 nM.
At tachykinin NK1 receptor, `C[C@](Cc1c[nH]c2ccccc12)(NC(=O)OCc1ccccc1)C(=O)N[C@@H](CO)c1ccccc1` [Example 15, Carbamic acid, [2-[(2-hydroxy-1-phenylethyl)amino]-1-(1H-indol-3-ylmethyl)-1-methyl-2-oxoethyl]-, phenylmethyl ester, [R-(R* R*)]-] had an IC50 of 58 nM.
Regarding `C[C@](Cc1c[nH]c2ccccc12)(NC(=O)OCc1ccccc1F)C(=O)N[C@@H](CO)c1ccccc1` [Example 16, Carbamic acid, [2-[(2-hydroxy-1-phenylethyl)amino]-1-(1H-indol-3-ylmethyl)-1-methyl-2-oxoethyl]-, (2-fluorophenyl)methyl ester, [R-(R*,R*)]-], the Kb on NK1 receptor [1] amounted to 10.6 nM. In addition, the IC50 at tachykinin NK1 receptor is 3.3 nM.
Compound `C[C@](Cc1c[nH]c2ccccc12)(NC(=O)OCc1cc(F)ccc1F)C(=O)N[C@@H](CO)c1ccccc1` [Example 17, Carbamic acid, [2-[(2-hydroxy-1-phenylethyl)amino]-1-(1H-indol-3-ylmethyl)-1-methyl-2-oxoethyl]-, (2,5-difluorophenyl)methyl ester, [R-(R*,R*)]] came in with a Kb on NK1 receptor [1] of 9.3 nM. Besides, the IC50 on tachykinin NK1 receptor was 3.9 nM.
`C[C@](Cc1c[nH]c2ccccc12)(NC(=O)OCc1cc2ccccc2s1)C(=O)N[C@@H](CO)c1ccccc1` [Example 18, Carbamic acid, [2-[(2-hydroxy-1-phenylethyl)amino]-1-(1H-indol-3-ylmethyl)-1-methyl-2-oxoethyl]-, benzo[b]thien-2-ylmethyl ester, [R-(R*,R*)]-]: on NK1 receptor [1], the Kb came to 6.3 nM. The same compound displayed an IC50 on tachykinin NK1 receptor of 9 nM.
